This passage reports GI50 and TGI results from PubChem BioAssay (NCI).

Each structure is given as a SMILES string. “And” between values parts separate entries of the source, which are not always exact repeats. Equal values may be shown once.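 How tested: cells in 96-well plates exposed to compound for 48 hours at five concentrations. GI50: concentration for 50% inhibition of growth. TGI marks complete inhibition of growth.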

Test systems include A549 NSCLC; U251 CNS; COLO 205 colon; EKVX NSCLC; HCT-116 colon; NCI-H460 lung; SR leukemia; 786-0 renal; HCC-2998 colon; SNB-75 CNS.
Holding throughout (assay): NCI anticancer screen, dose series, 48 h

Take `COc1ccc(-c2c(NC(=O)Nc3ccc(Cl)c(C(F)(F)F)c3)cnn2-c2ccc(S(N)(=O)=O)cc2)cc1`: the GI50 with A549 NSCLC is 3.46 µM; in the test on U251 CNS, 3.3 µM; in the test with COLO 205 colon, 2.31 µM; in the test with EKVX NSCLC, 3.77 µM; with HCT-116 colon, 2.04 µM; in the test on NCI-H460 lung, 3.5 µM. For the same molecule, the GI50 with SR leukemia was 1.99 µM; with 786-0 renal it was 1.68 µM; with HCC-2998 colon it was 3.13 µM; in the test on SNB-75 CNS, 2.3 µM. The TGI with A549 NSCLC worked out at 13.6 µM; in the test with U251 CNS, 12.3 µM; in the test on COLO 205 colon, 5.31 µM; in the test on EKVX NSCLC it was 16.4 µM; in the test on HCT-116 colon, 4.22 µM; with NCI-H460 lung it was 10.4 µM. The TGI came out at 5.83 µM with SR leukemia, 3.42 µM with 786-0 renal, 8.85 µM in the test with HCC-2998 colon and 13.3 µM in the test on SNB-75 CNS.

`O=C1NN(C(=O)c2ccccc2)C(c2ccc(Cl)c(Cl)c2)=C/C1=C\c1ccccc1[N+](=O)[O-]`: the GI50 was 2.11 µM with A549 NSCLC; 0.897 µM with U251 CNS; 1.52 µM with COLO 205 colon; 2.81 µM in the test with EKVX NSCLC; 2.03 µM with HCT-116 colon; 1.78 µM in the test with NCI-H460 lung. The GI50 is 2.07 µM in the test on SR leukemia, 2.2 µM in the test with 786-0 renal, 1.81 µM with HCC-2998 colon and 1.27 µM with SNB-75 CNS. Moreover, the TGI was above 6.75 µM with A549 NSCLC; above 6.75 µM in the test with U251 CNS; 3.49 µM with COLO 205 colon; above 6.75 µM in the test with EKVX NSCLC; above 6.75 µM with HCT-116 colon; 5.2 µM in the test on NCI-H460 lung. Further, the TGI in the test with SR leukemia was above 6.75 µM; in the test on 786-0 renal, above 6.75 µM; in the test on HCC-2998 colon it was 5.48 µM; in the test with SNB-75 CNS, above 6.75 µM.

On to `CC(C)(C)c1cc[n+](C[n+]2ccc(C(C)(C)C)cc2)cc1`, for which the TGI in the test with A549 NSCLC, in the test with U251 CNS, in the test with COLO 205 colon, with EKVX NSCLC, in the test with HCT-116 colon and in the test on NCI-H460 lung was above 100 µM each time. In addition, the TGI with SR leukemia, in the test on 786-0 renal, in the test with HCC-2998 colon and in the test on SNB-75 CNS was above 100 µM each time.

In the case of `Oc1cccc2ccc(SSc3ccc4cccc(O)c4n3)nc12`, the TGI in the test with A549 NSCLC was above 100 µM; in the test on U251 CNS, 30 µM; with COLO 205 colon it was 35.2 µM; in the test with EKVX NSCLC, above 100 µM; with HCT-116 colon, 41.1 µM; with NCI-H460 lung, 42.6 µM. Besides, the TGI with SR leukemia was above 100 µM; with 786-0 renal, 40.4 µM; with HCC-2998 colon, 21.3 µM; in the test on SNB-75 CNS, 34.9 µM.

Consider `Oc1cccc2cccnc12`, for which the GI50 in the test with A549 NSCLC is 6.17 µM and 16.4 µM and 5.97 µM; in the test on U251 CNS, 3.32 µM and 23.8 µM and 5.14 µM; in the test with COLO 205 colon, 5.58 µM and 19.1 µM and 16.9 µM; in the test with HCT-116 colon it was 1.06 µM and 3.42 µM and 1.46 µM; in the test on NCI-H460 lung, 1.6 µM and 3.32 µM and 3.85 µM; with SNB-75 CNS, 44 µM and 18.4 µM. Besides, the TGI is above 100 µM with A549 NSCLC; above 100 µM with U251 CNS; 40.3 µM and 67.7 µM and > 100 µM in the test with COLO 205 colon; above 100 µM in the test on EKVX NSCLC; 23.1 µM and > 100 µM in the test with HCT-116 colon; 23.4 µM and > 100 µM and 21.9 µM in the test with NCI-H460 lung. Further, the TGI was 23.7 µM and 3.71 µM in the test on SR leukemia; above 100 µM with 786-0 renal; 28 µM and > 100 µM and 47.9 µM in the test with HCC-2998 colon; above 100 µM with SNB-75 CNS.

Consider `COC(=O)[C@@H](C)C[C@H](Cc1ccc(F)cc1)NC(=O)c1csc([C@@H](C[C@H](C(C)C)N(C)C(=O)[C@@H](NC(=O)[C@H]2CCCCN2C)C2CC2)OC(C)=O)n1`, for which the GI50 in the test with A549 NSCLC was 0.959 µM; in the test on U251 CNS, 0.293 µM; with COLO 205 colon, 0.184 µM; in the test on EKVX NSCLC, 0.88 µM; in the test on HCT-116 colon, 0.116 µM; in the test on NCI-H460 lung it was 0.255 µM. Further, the GI50 with SR leukemia is 0.0282 µM; with 786-0 renal, 0.831 µM; in the test with HCC-2998 colon it was 2.48 µM; in the test with SNB-75 CNS, 0.174 µM. Also, the TGI is above 25 µM in the test with A549 NSCLC; above 25 µM in the test on U251 CNS; 1.47 µM in the test on COLO 205 colon; above 25 µM in the test with EKVX NSCLC; above 9.49 µM with HCT-116 colon; above 25 µM with NCI-H460 lung. The TGI with SR leukemia, in the test with 786-0 renal, with HCC-2998 colon and in the test with SNB-75 CNS was above 25 µM throughout.

On to `COc1cc(/C=C/C(=O)c2ccccc2O)ccc1OCCCOc1cc2c(cc1OC)C(=O)N1CCC[C@H]1C=N2`, for which the GI50 in the test with A549 NSCLC was 0.0315 µM; in the test with U251 CNS, 0.0226 µM; in the test with COLO 205 colon, 0.0348 µM; with EKVX NSCLC, 0.215 µM; with HCT-116 colon it was 0.0332 µM; in the test on NCI-H460 lung it was 0.0511 µM. The GI50 in the test on SR leukemia was 0.0184 µM; in the test with 786-0 renal, 0.025 µM; with HCC-2998 colon it was 0.138 µM; with SNB-75 CNS it was 0.0468 µM. Besides, the TGI was 1.24 µM in the test with A549 NSCLC; 0.0511 µM with U251 CNS; 0.144 µM in the test on COLO 205 colon; 0.955 µM with EKVX NSCLC; 1.57 µM in the test on HCT-116 colon; 11.1 µM in the test on NCI-H460 lung. Further, the TGI in the test on SR leukemia turned out to be 0.0523 µM; in the test on 786-0 renal, 1.53 µM; in the test on HCC-2998 colon, 0.433 µM; in the test with SNB-75 CNS, 0.222 µM.
